# Entries after “also recorded” stand apart in the source; their conditions may differ. Counter-ions that a name gives are not always drawn. Like-named read-outs stand apart in the source and are kept apart here.
# Key:
# [1] = tested on: fear potentiated startle response; test: fear potentiated startle model of anxiety; format: in vivo, Male Long Evans rats; conditions: statement in words
# Excerpt: In the fear potentiated startle model, animals are exposed to a neutral stimulus such as light (conditioned stimulus) with an aversive stimulus such as a shock (unconditioned stimulus). Following conditioning, when the animals are presented with a loud acoustic stimulus, larger startle responses are elicited when the startle stimulus is preceded by light. The difference in amplitude between the startle response when conditioned animals are exposed to the aversive stimulus paired with a neutral stimulus and the startle response when the conditioned animal is exposed only to the aversive stimulus is known as fear potentiated startle. The amplitude of the startle response when the animal is exposed only to the aversive stimulus is known as the baseline startle. Test compounds which are effective in this model decrease the fear potentiated startle response. It is emphasized that what is being determined experimentally is the difference between the startle response with paired stimuli and the baseline startle; test compounds which are anxiolytics may increase, decrease or leave unchanged the baseline startle response. (Davis, TiPS, January 1992 [Vol. 13], 35-41).
# (§1) Male Long Evans rats (180-400 g) or male NIH Swiss mice (18-35 g) were obtained from Harlan Sprague-Dawley, Cumberland, Ind., U.S.A. and acclimated at least 3 days before testing. Animals were housed at 23°±2° C. (relative humidity 30% to 70%) and given Purina Certified Rodent Chow and water ad libitum. The photoperiod was 12 hours of light and 12 hours of dark, with dark onset at approximately 1800 hours.
# (§2) Test compounds were dissolved in a vehicle of purified water and neutralized with 5N NaOH to a pH of 7-8 when applicable. […] Control animals received the respective vehicle.
# SL-LAB (San Diego Instruments, San Diego, Calif.) chambers were used for conditioning sessions and for the production and recording of startle responses. A classical conditioning procedure was used to produce potentiation of startle responses. Briefly, on the first 2 days, rats were placed into dark startle chambers in which shock grids were installed. Following a 5-minute acclimation period, each rat received a 1 mA electric shock (500 ms) preceded by a 5 second presentation of light (15 watt) which remained on for the duration of the shock. Ten presentations of the light and shock were given in each conditioning session, […] A block of 10 consecutive presentations of acoustic startle stimuli (110 dB, non-light-paired) were presented at the beginning of the session in order to minimize the influences of the initial rapid phase of habituation to the stimulus. […]
# [2] = tested on: negatively coupled cAMP-linked metabotropic glutamate receptors; test: selectivity of agonism at metabotropic glutamate receptors
# Excerpt: As described previously herein, it is preferred to use an agonist which acts selectively at negatively coupled cAMP-linked metabotropic glutamate receptors (relative to other glutamate receptors) in the methods according to the invention. Such an agonist may be a single compound, for example one of the four compounds named hereinabove, or two or more compounds which, in combination function as an agonist which acts selectively at negatively coupled cAMP-linked metabotropic glutamate receptors.
# [3] = tested on: negatively coupled cAMP-linked metabotropic glutamate receptors; conditions: Schoepp and Johnson, Neuropharmacology Vol. 32; cited from earlier work
# [4] = tested on: natural aversion to height and open spaces; test: automated elevated plus maze model of anxiety; format: in vivo, male NIH Swiss mice
# Method: The elevated plus maze model is based upon the natural aversion of rodents to height and open spaces.
# as §1, §2
# Construction of the elevated plus-maze was based on a design validated for mice by Lister (1987). The entire maze was made of clear Plexiglas. The maze was comprised of two open arms (30×5×0.25 cm) and two enclosed arms (30×5×15 cm). The floor of each maze arm was corrugated to provide texture. The arms extended from a central platform and angled at 90 degrees from each other. The maze was elevated to a height of 45 cm above the floor and illuminated by red light. Individual infrared photocells were mounted along each arm of the maze to monitor closed, open, or nosepoke activity. Mice were individually placed on the central platform of the maze and the number of closed arm, open arm, and nosepoke (poking head only into open arm from closed arm of maze) counts were recorded and used as a measure of arm entries and time spent on various sections of the maze over a five-minute test period.
# [5] = tested on: fear potentiated startle response; conditions: reference anxiolytics, presentation of light, cited from earlier work
# [6] = tested on: natural aversion to height and open spaces; conditions: reference anxiolytics, cited from earlier work
# anxiety disorders = conditions: in vivo; cited from earlier work
smiles,measurement,setting,value
"N[C@]1(C(=O)O)CO[C@@H]2[C@@H](C(=O)O)[C@@H]21 (relative stereo) [1SR,4SR,5RS,6SR-4-amino-2-oxabicyclo[3.1.0]hexane-4,6-dicarboxylic acid]",efficacy in fear potentiated startle model of anxiety,[1],effective
same,selectivity as agonist at negatively coupled cAMP-linked metabotropic glutamate receptors,[2],act selectively as agonists
"N[C@@]1(C(=O)O)CC[C@@H](C(=O)O)C1 [1S,3R-1-aminocyclopentane-1,3-dicarboxylic acid]",action at PI-linked metabotropic glutamate receptors,[3],also acts at PI-linked metabotropic glutamate receptors
same,selectivity at negatively coupled cAMP-linked metabotropic glutamate receptors,[3],act non-selectively
"N[C@@]1(C(=O)O)CO[C@H]2[C@H](C(=O)O)[C@H]21 [1R,4R,5S,6R-4-amino-2-oxabicyclo[3.1.0]hexane-4,6-dicarboxylic acid]",efficacy in fear potentiated startle model of anxiety,[1],effective
same,selectivity as agonist at negatively coupled cAMP-linked metabotropic glutamate receptors,[2],act selectively as agonists
"NC1(C(=O)O)CCC2C(C(=O)O)C21 (single isomer, unassigned; (+)) [(+)-2-Aminobicyclo[3.1.0]hexane-2,6-dicarboxylic Acid]",efficacy in fear potentiated startle model of anxiety,[1],effective
same,Nosepoke counts,"[4]; oral, 3 mg/kg, mice, five-minute test period",significant increase
same,open arm activity,"[4]; oral, 1, 3 and 10 mg/kg, mice, five-minute test period",significant increases
same,Closed arm activity counts,"[4]; oral, any dose, mice, five-minute test period",not significantly altered
same,efficacy in elevated plus maze model of anxiety,[4]; statement in words,effective
same,selectivity as agonist at negatively coupled cAMP-linked metabotropic glutamate receptors,[2],acts selectively as an agonist
"O=C1CC2(CCCC2)CC(=O)N1CCCCN1CCN(c2ncccn2)CC1 [Buspirone hydrochloride, buspirone hydrochloride]",reduction of fear (increased startle response) in the fear potentiated startle model,[5]; hydrochloride,effective at reducing the fear
same,reduction of fear of open spaces in the elevated plus maze model,[6]; hydrochloride,effective; also recorded: reducing the fear of open spaces
same,dependence-inducing side effects,anxiety disorders,lacks the dependence-inducing side effects
"N[C@@]1(C(=O)O)CS[C@@H]2[C@H](C(=O)O)[C@@H]21 (relative stereo) [1SR,4SR,5RS,6SR-4-amino-2-thiabicyclo[3.1.0]hexane-4,6-dicarboxylic acid]",efficacy in fear potentiated startle model of anxiety,[1],effective
same,selectivity as agonist at negatively coupled cAMP-linked metabotropic glutamate receptors,[2],act selectively as agonists
CN1C(=O)CN=C(c2ccccc2)c2cc(Cl)ccc21 [Diazepam],reduction of fear (increased startle response) in the fear potentiated startle model,[5],effective at reducing the fear
same,reduction of fear of open spaces in the elevated plus maze model,[6],reducing the fear of open spaces

# From patent US5882671A, “Anxiolytic agents” (Eli Lilly and Company, priority 1997, dated 1999)
